From patent publication US20230355713A1, “PEPTIDE FOR THERAPEUTIC APPLICATIONS IN THE DERMATOLOGICAL FIELD” (Dompe' Farmaceutici S.P.A., priority 2020, published 2023) come the findings set out here.

Where no end group is shown, it is not given here.

In data set [1] the test system is mouse model of human vitiligo. The experiment in a line: In vivo efficacy test: skin re-pigmentation, depigmentation score 0 to 5. The settings on record: 200 μg/mL in base cream, topical, twice a day for 8 weeks; 0 to 5 point scale. Set-up: species or system SCF transgenic mice of the C57BL6 line. As for the experimental part:
The in vivo capacity of skin re-pigmentation by the NGF 1-14 peptide and the whole NGF protein was compared.
The study was conducted on a mouse model of human vitiligo.
SCF transgenic mice of the C57BL6 line, treated for 10-12 weeks to induce vitiligo using CD8+T cells specific for melanocytes, were shaved twice a week in the dorsal part affected by depigmentation, with an electric razor, in an area of about 6 cm×6 cm. The animals were divided into two groups of equal numbers (8 animals per group). On a first group of animals, topical administration was carried out in two sites of the shaved area spaced from both sides of the midline, applying on the left a topical preparation containing 200 μg/mL of NGF peptide in a base cream vehicle, while on the right side only the base cream (control) was applied. The same procedure was repeated on the second group of animals, applying on the left a topical preparation containing 200 μg/mL of NGF 1-14 peptide in a base cream vehicle, while on the right side only the base cream (control) was applied.
The application was spread evenly twice a day for 8 weeks, in the central part of the shaved area, on a surface of about 2 cm×2 cm. Starting from the second day and thereafter, the areas of interest were cleaned with a cloth before applying the preparations. The animals were kept away from possible sources of ultraviolet light irradiation.
Quantification of epidermal depigmentation was performed using a subjective scoring system based on a 0 to 5 point scale, where 5 represents the most severe degree of depigmentation, reported in the literature (Rebecca L. et al., Curr Protoc Immunol. (2019), 124(1)—February). A trained researcher blinded to the details of the experiment performed the evaluation at the treated site.

Data set [2] concerns primary cell cultures of normal human melanocytes. Briefly: In vitro melanin production by melanocytes (melanin content by ELISA). The format is cell-based. The settings on record: concentration at which 50% of the maximum concentration of cellular melanin is observed; cultured for one week. As for the experimental part: The in vitro ability of the NGF 1-14 peptide and the NGF whole protein to activate melanin production by melanocytes was compared.
According to already established protocols, primary cell cultures of normal human melanocytes were seeded in Petri dishes and cultured for one week, with and without the presence of the NGF 1-14 peptide at various concentrations, using the whole human NGF protein as a control. The melanin content was measured with the ELISA enzyme immunoassay. The maximum melanin concentration, measured as the difference from baseline, was experimentally determined from the plateau of the dose response curves of NGF and NGF 1-14. The EC50 represents the concentration of NGF 1-14 or NGF at which 50% of the maximum concentration of cellular melanin is observed.

Another data set has as its system sensory nerve fibers. Briefly: Histological test: density of sensory nerve fibers in skin biopsies (NF200, TRPV1 antibodies). Format: in vivo, SCF transgenic mice of the C57BL6 line. As to conditions: 200 μg/mL in base cream, after the 8-week treatment of example 2a. From the text:
The in vivo ability of the NGF 1-14 peptide and the NGF whole protein to increase the density of nerve endings was compared.
After the treatment described in example 2a, the animals were sacrificed and skin samples (3 biopsies per point) were taken both from the area treated with NGF1-14 or with NGF, and from the untreated area, for each animal, for the purpose of histological examination.
To evaluate the density of sensory nerve fibers, antibodies directed against the neurofilament protein 200 (NF200; Sigma) specific for large diameter fibers, and antibodies directed against the transient receptor potential vanilloid 1 (TRPV1, Neuromics) were used to measure peripheral sensory fibers (small diameter).

The next data set deals with Sprague-Dawley rats. The experiment in a line: In vivo tolerability test: plantar thermal hyperalgesia test (Hargreaves apparatus), paw retraction latency. As to conditions: for hyperalgesic activity compared to the saline group (paw retraction latency): 1, 3, 5 and 24 h after injection, P<0.001.

Protocol for Sprague-Dawley rats: The in vivo intra-implant tolerability of the NGF 1-14 peptide was evaluated in comparison with the whole protein NGF.
Tyrode's isotonic solution containing the rh-NGF protein in concentrations from 5 to 20 μg/mL and the vehicle was administered intra-implantally in the dorsal region of Sprague-Dawley rats (10 animals for each concentration), in a volume of 0.05 mL using a very fine syringe.
Tyrode's isotonic solution containing the murine-NGF protein in concentrations from 5 to 20 μg/mL and the vehicle was administered intra-implantally in the dorsal region of Sprague-Dawley rats (10 animals for each concentration), in a volume of 0.05 mL using a very fine syringe.
Tyrode's isotonic solution containing the NGF 1-14 peptide in concentrations from 5 to 20 μg/mL and the vehicle was administered intra-implantally in the dorsal region of Sprague-Dawley rats (10 animals for each concentration), in a volume of 0.05 mL using a very fine syringe.
The solution was administered intra-implantally in the dorsal region of Sprague-Dawley rats (10 animals for each concentration), in a volume of 0.05 mL using a very fine syringe.
After the intra-implant injections, the Plantar thermal hyperalgesia test was conducted. In particular: after 1, 3, 5 and 24 h the thermal sensitivity was determined using the Hargreaves apparatus (HA).
Hypersensitivity to heat was assessed using the rat plantar test apparatus (Ugo Basile, Italy) following the method described by Hargreaves et al. (1988). The plantar test uses three perspex boxes (22×19×25 cm) placed on an elevated glass table. The rats were housed in each box, so that 3 rats could be tested simultaneously in a single apparatus and allowed to acclimate for at least 10 minutes. A mobile infrared heat source was applied to the plantar surface of the hind legs.
Paw retraction latency was defined as the time (in seconds) it took the rat to remove the hind leg from the heat source. The heat source was calibrated to an intensity of 15 IR and a cut-off of 50 sec was applied to prevent tissue damage. The test was performed at 1, 3, 5 and 24 hours after the injection. Each paw was tested twice per session (raw data represents the average of 2 measurements performed at an interval of approximately 5 minutes).

Take “NGF: Nerve growth factor, whole human NGF protein used as a control”: in data set [1], the “percentage of animals with a degree of depigmentation less than or equal to 2” value stood at 37.5%, the “percentage of animals with a moderate degree of depigmentation equal to 3” value worked out at 37.5% and the “percentage of animals with a severe degree of depigmentation greater than or equal to 4” value came out at 25%. Moreover, the 50% effective concentration (EC50) (usually the concentration at which the effect is half-maximal) in data set [2] came to 0.06 nM. Moreover, in the data set on sensory nerve fibers (large diameter fibers), the “Nerve endings density (mm/mm^3) NF200” value is on record as 350 + 50 mm/mm^3. Further, in the data set on sensory nerve fibers (small diameter peripheral sensory fibers), the “Nerve termination density unit of measurement (mm/mm^3) TRPV1” value is given as 200 + 36 mm/mm^3.

As to “SSSHPIFHRGEFSV [NGF 1-14, SSSHPIFHRGEFSV]”, the “hyperalgesic activity compared to the saline group (paw retraction latency)” value with Sprague-Dawley rats (10 μg/50 μL) and with Sprague-Dawley rats (20 μg/50 μL) was “showed hyperalgesic activity” each time. In addition, the EC50 in data set [2] worked out at 1200 nM.

For the substance “rh-NGF: rh-NGF protein, whole protein NGF comparator in the tolerability test”, the “hyperalgesic activity compared to the saline group (paw retraction latency)” value with Sprague-Dawley rats (10 μg/50 μL) is given as “showed hyperalgesic activity”. Besides, the “hyperalgesic effect compared with NGF 1-14 at 10 and 20 μg/50 μL” value in the data set on Sprague-Dawley rats (10 μg/50 μL, P<0.05 at 1-3-24 h and P<0.01 at 5 h) is listed as “more pronounced significant hyperalgesic effect”.
